Data published in US20220137028A1, “In Vitro Assays as Indicator of Local Tolerance” (Lonza Ltd, priority 2019, published 2022).

Key:
[1] = Tonicity of 10% co-solvent solutions; type: physicochemical; conditions: solutions with 10% co-solvent
[2] = system: human heparinized whole blood (erythrocytes); experiment: In vitro hemolysis test with co-solvents (study procedure, Drabkin's solution, absorbance 540 nm); conditions: for max. well tolerated co-solvent concent: co-solvent diluted with NaCl 0.9%, intersection of fitted sigmoidal curve with 5% hemolysis line, 10 min at 37° C.; for hemolysis value: human, 10 min, 10 % v/v
Description: A test was developed to determine the hemolytic activity of a pharmaceutical formulation. The test utilized fresh anticoagulated human blood. In general, the test was performed by diluting the pharmaceutical product with fresh saline, then mixing with an aliquot of fresh human whole blood. After incubating at 37° C., the test solutions were centrifuged, and the concentration of hemoglobin was measured in the supernatant using spectroscopic techniques.
To determine the 100% hemolysis value, equal volumes of […] and blood were mixed, centrifuged, and mixed again. 30 μl was transferred to a plate, and 170 μl of Drabkin's reagent was added. The 100% hemolysis value was indicated as Value A.
To determine the 0% hemolysis value, equal volumes of saline and blood were mixed. The 0% hemolysis value is indicated as Value B.
The dilutions were performed in glass or plastic tubes with a diameter of approximately 12 mm and a length of approximately 100 mm.
400 μl of whole blood was added to each tube. The components were carefully homogenized. The tubes were incubated for 10 minutes at 37° C., homogenized again and then centrifuged for 10 minutes at 2500×g. The contents of the tube were mixed for Value A (100% hemolysis) and then transferred 3 times 30 μl of each tube of the supernatant to a 96-well plate (flat bottom) and 170 μl of Drabkin's solution was added to each well containing solution. The plate was read in a plate reader at wavelength 540 nm.
For evaluation of the test results from the plate reader reading at wavelength 540 nm, the mean values of the triplicates were calculated. The percent hemolytic activity was determined according to the following formula:
wherein: % HA=percent hemolytic activity; A=Value for 100% HA; B=Value for 0% HA; C=Value for tested solution.
Dilutions of the co-solvents were prepared in tubes. An equal volume of human heparinized whole blood was added and homogenized. The test co-solvents were diluted in sterile, pyrogen-free water and sterile, pyrogen-free saline.
The following equation was used to obtain a curve fitting of the hemolysis data: […]
The maximal well tolerated co-solvent concentration was obtained by calculating the intersection of the sigmoidal curves with the horizontal line at hemolysis, i.e., 5%.

Compound | tonicity of the solution [1] | flocculation in hemolysis test [2] | hemolysis at the lowest tested co-solvent concentration (in words) [2] | max. well tolerated co-solvent concent [2] [%] | hemolysis value [2] [%] | co-solvent concentration at which significant (>10%) hemolysis is induced [2] | effect of switch from water for injection to saline as diluent on hemolytic behavior [2]
CCO [Ethanol] | clearly hypertonic | significant flocculation | high hemolysis | 29 | ~100 |  | 
CC(O)CO (stereo not drawn) [PG, Propylene glycol] | clearly hypertonic |  | high hemolysis | 48 | ~100 |  | 
Polyethylene glycol 400 [PEG 400] | close to isotonicity |  |  |  |  | 50-60% | did not drastically modify the hemolytic behavior
Polyethylene glycol 300 [PEG 300] | isotonic |  |  |  |  | 60-70% | did not drastically modify the hemolytic behavior
